Results published in US12599560B2, “Lipids and lipid nanoparticle formulations” (Longuide Biopharma Corporation, priority 2023, dated 2026).

Assays:
[1] = system: mice; assay: In vivo delivery of FLuc-mRNA lipid nanoparticle preparations in mice (IVIS imaging); parameters: In vivo IVIS / In vivo IVIS (liver) / In vivo IVIS (spleen): unit not given here
Outline: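 FLuc-mRNA LNPs given intramuscularly into thigh rectus femoris or intravenously via tail vein, about 75 μL per mouse, 3 mice. D-Luciferin (200 μL, 15 mg/mL) injected i.p. 10–15 min before IVIS imaging at set times after dosing.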

[2] = Potential characterization of nanoparticle preparations; type: physicochemical
Experimental: 20 μL of the nucleic acid lipid nanoparticle solution (containing about 0.04 mg/mL mRNA) was taken and added with 780 μL of ultrapure water, used a pipette tip to gently blow and mix, and the potential of the nanopreparation was detected by Malvern particle sizer (model ZEN3700). 27.5 μL nucleic acid lipid nanoparticle solution (containing about 0.04 mg/mL mRNA) was taken and added with 200 μL ultrapure water. A pipette tip was used to gently blow the sample and mix well. The particle size of the nanopreparation was detected by Malvern Dynamic Light Scattering Instrument (Malvern Instruments Ltd., ZEN3700, UK). After the detection, the sample was recovered to an EP tube, and 600 μL of ultrapure water was added, gently blown with a pipette tip, and the potential of the nanopreparation was measured by a Malvern particle size meter.

[3] = Osmotic pressure by freezing point osmometer; type: physicochemical; conditions: formulation No. 1, molar ratio 1.50:20:33.50:45.00
Experimental: 50 μL of the nucleic acid lipid nanoparticle solution (containing about 0.04 mg/mL mRNA) was taken and the osmotic pressure of the nanopreparation was detected by freezing point penetrometer (Gonotec GmbH, OSMOMAT 3000-D).

[4] = system: DC2.4 cells; assay: Cell transfection assay (D-Luciferin), DC2.4; type: cell-based
Experimental: A549 cells were digested and collected the day before treatment and the cell concentration was adjusted to 2*10^5 cells/mL, 200 μL cell culture medium with a concentration of 2*10^5 cells/mL was added to the 96-well plate, resulting in approximately 4*10^4 cells per well in the 96-well plate. Digested and collected DC2.4 cells and adjusted the cell concentration to 1*10^5 cells/mL, added 200 μL cell culture medium with a concentration of 1*10^5 cells/mL to the 96-well plate, so that the number of cells per well in the 96-well plate is approximately 2*10^4. The cells were incubated in a cell culture incubator (Esco Micro Pte Ltd, Singapore, CLM-170B-8-NF) at 37° C. 5% CO2 for 24 h.
On the day of cell treatment, the medium (Thermo Fisher Scientific) was aspirated from the 96-well plate, 200 μL of PBS was added to each well to rinse the cells and then the PBS (Thermo Fisher Scientific) was removed, and 180 μL of opti-MEM (Thermo Fisher Scientific) was added to each well of the treatment group.
Different volumes of the preparation were taken and diluted by adding the buffer used for the preparation or the buffer used for dialysis, and four dosing concentrations were prepared for each preparation, and 20 μL of the diluted nanopreparation was added to each well of a 96-well plate (3 replicate wells for each concentration), and the dosing concentrations of the preparation were about 50 ng mRNA/well, 100 ng mRNA/well, 200 ng mRNA/well, and 300 ng mRNA/well, respectively.
The 96-well cell culture plate was placed in a cell culture incubator and incubated at 37° C. 5% CO2 for 4 h. The medium was sucked up, and 200 μL of DMEM complete medium was added to each well and incubated for 20 h for detection.
D-Luciferin (Biohub International Trade Co., Ltd.) stock solution (9900 μL of complete medium+100 μL of 25 mg/mL of D-Luciferin stock solution) was diluted with DMEM complete medium at 99:1 to make a working solution at the concentration of 250 μg/mL (25 μg per well).
The 96-well cell culture plate was taken out and the supernatant was removed. Before imaging, the 96-well plate was added with 100 μL of D-Luciferin working solution, incubated at 37° C. for 5 min, and imaged and analyzed by the plate reader.

Structure (SMILES): CCCCCCCCCCCCOC(=O)C(O)CN(CCCN1CCN(CCCN(CC(O)C(=O)OCCCCCCCCCCCC)CC(O)C(=O)OCCCCCCCCCCCC)CC1)CC(O)C(=O)OCCCCCCCCCCCC (centres unmarked) [Compound L0191]
- In vivo IVIS ([1]; Table 2, IM, whole body scan): 8.97 × 10^7
- In vivo IVIS (liver) ([1]; Table 2, IV, liver): 2.77 × 10^8
- In vivo IVIS (spleen) ([1]; Table 2, IV, spleen): 1.03 × 10^8
- In vivo IVIS ([1]; Table 4, IM): 2.12 × 10^7
- In vivo IVIS ([1]; Table 4, IV): 9.64 × 10^8
- in vivo delivery efficiency as compared to the benchmark compound SM102 ([1]; certain formulations, Table 2): superior in vivo delivery efficiency
- Zeta potential ([2]; formulation No. 1, molar ratio 1.50:20:33.50:45.00): 11.30 ± 0.69
- Zeta potential ([2]; formulation No. 2, molar ratio 1.50:11.50:38.50:48.50): 12.67 ± 0.61
- osmotic pressure [3]: 2139
- DC2.4 cell transfection/RLU ([4]; formulation No. 1, 50 ng/well): 44580.00 RLU
- DC2.4 cell transfection/RLU ([4]; formulation No. 1, 100 ng/well): 38457.67 RLU
- DC2.4 cell transfection/RLU ([4]; formulation No. 1, 200 ng/well): 51212.00 RLU
- DC2.4 cell transfection/RLU ([4]; formulation No. 1, 300 ng/well): 49462.00 RLU
- DC2.4 cell transfection/RLU ([4]; formulation No. 2, 50 ng/well): 22385.67 RLU
- DC2.4 cell transfection/RLU ([4]; formulation No. 2, 100 ng/well): 31266.67 RLU
- DC2.4 cell transfection/RLU ([4]; formulation No. 2, 200 ng/well): 45175.33 RLU
- DC2.4 cell transfection/RLU ([4]; formulation No. 2, 300 ng/well): 66928.33 RLU
